From patent US9700637B2, “Reaction-based fluorescent probes for detecting zinc” (Massachusetts Institute of Technology, priority 2013, dated 2017) come the findings set out here.

A short description of data set [1]: Octanol/aqueous buffer partition coefficient (modified shake-flask). The data set is classed as physicochemical. Conditions: octanol/water, buffered at pH 7 with 10 mM Tris. An excerpt: To understand better the limitations of TPP in directing fluorophores to mitochondria, we prepared two additional TPP-derivatives, one based on 6-carboxyfluorescein (FL-TPP) and one on coumarin 343 (C343-TPP). […] To test this hypothesis, we conducted live cell fluorescence imaging experiments with FL-TPP. […] Not only did FL-TPP fail to accumulate in mitochondria, it was cell-impermeable under our imaging conditions. In contrast, the cationic C343-TPP strongly colocalized with MitoTracker Red in live HeLa cells (Pearson's r=0.72±0.02). To quantify the effect of hydrophobicity in mitochondrial-targeting, we measured the octanol/aqueous buffer partition coefficient (log P) for our TPP constructs and two MitoTracker dyes. We then tabulated the log P, charge of the predominate species in solution at physiological pH, and cellular localization for each dye (Table 1). […] Along with cationic charge, a minimum level of lipophilicity must be reached in order to evade endo/lysosomal sequestration and enable effective mitochondrial targeting.

Data set [2] can be described thus: Charge of predominate species in solution at physiological pH. Conditions: physiological pH = 7.4. The data set is classed as physicochemical.
For a further data set, the system named is HeLa cells. The data set is described as follows: Live cell fluorescence imaging: localization, co-localization and uptake. Conditions: fluorescence microscopy, live HeLa cells (Table 1). The format is cell-based. How it is done: FIG. 6 depicts live cell imaging of HeLa cells. 500 nM mitotracker Red was bath-applied along with 1 μM DA-ZP1-TPP for 30 min at 37° C. and 5% CO2. After exposure to 25 μM 1:2 zinc:pyrithione, fluorescent images were acquired and the co-localization of the two sensors was assessed. The calculated Pearson's correlation coefficient (r) was r=0.581±0.097 (n=9), which represents the average of 9 ROIs over three independent plates.
FIG. 14 depicts live cell imaging of HeLa cells. 1 μM Lysotracker Red was bath-applied along with 2 μM ZP1-TPP. The calculated Pearson's correlation coefficient (r) was r=0.45±0.15, which represents the average of 9 ROIs over three independent plates.
FIG. 24 depicts fluorescence images of live HeLa cells. HeLa cells were pretreated with a 1 μM solution of DA-ZP1-TPP in dye- and serum-free medium for 30 min (37° C., 5% CO2). […] The signal from MitoTracker Red (c) correlates well with the signal from the zinc-bound sensor (d). Pearson's r=0.64±0.1 (n=18).
FIG. 27 depicts deconvoluted fluorescence microscopy images of live HeLa cells pretreated with ZP1-R9 (5 μM) or DA-ZP1-R9 (2.5 μM) and the indicated organelle stain. Top, ZP1-R9: (a) Differential interference contrast (DIC) image, (b) signal from ZP1-R9, (c) signal from LysoTracker Red, (d) overlay of (b) and (c). Pearson's r=0.42±0.16 (n=8). Bottom, DA-ZP1-R9: (e) DIC, (f) signal from DA-ZP1-R9 after treatment with 25 μM ZnPT, (g) signal from Hoechst 33258, (h) overlay of (f) and (g). Scale bar=25 μm.
FIG. 29 depicts deconvoluted fluorescence microscopy images of live HeLa cells pretreated with 1 μM DA-ZP1-R9 and 100 nM Dextran Red. (a) Differential interference contrast (DIC), (b) signal from DA-ZP1-R9 after addition of 25 μM ZnPT (c) signal from Dextran Red, (d) overlay of (b) and (c). Pearson's r=0.55±0.12 (n=11). Scale bar=25 μm.
FIG. 31 depicts deconvoluted fluorescence microscopy images of ZP1-(Fxr)3 and DA-ZP1-r(Fxr)3 in live HeLa cells. Top, cells pretreated with medium containing 2.5 μM of ZP1-(Fxr)3: (a) Differential interference contrast (DIC) image, (b) signal from ZP1-(Fxr)3, (c) signal from Dextran Red, (d) overlay of (b) and (c). Pearson's r=0.71±0.07. Bottom, cells pretreated with 1 μM DA-ZP1-r(Fxr)3: (e) DIC, (f) signal from DA-ZP1-r(Fx)3 after treatment with 25 μM ZnPT, (g) signal from MitoTracker Red, (h) overlay of (f) and (g). Pearson's r=0.41±0.09. Scale bar=25 μm.
FIG. 33 depicts deconvoluted fluorescence microscopy images of DCF-r(Fxr)3 and DA-DCF-r(Fxr)3 in live HeLa cells. Top, cells pretreated with 5 μM DCF-r(Fxr)3 and 500 nM MitoTracker Red for 30 min. (a) differential contrast image (DIC), (b) signal from DCF-r(Fxr)3, (c) signal from MitoTracker Red. Bottom, cells pretreated with 5 μM DA-DCF-r(Fxr)3 and 500 nM MitoTracker Red for 30 min. (d) DIC, (e) signal from DCF-r(Fxr)3, (f) signal from MitoTracker Red. The global Pearson's r=0.57±0.16 (n=37). Cells with high levels of DA-DCF-r(Fxr)3 (e, red outline) have a higher Pearson's r=0.83±0.08 (n=10). Scale bar=25 μm.
We used HeLa cells as a model system to evaluate the ability of DA-ZP1-TPP to target mitochondria and respond to changes in intracellular zinc levels. […] Over a two-hour period, the fluorescence intensity from the sensor remained constant, implying that the acetylated form is stable against intracellular esterases (FIG. 24e). […] Addition of 100 μM TPEN attenuated the fluorescence signal by ˜2.4-fold (FIG. 24f). […]

A short description of data set [3]: Deacetylation kinetics monitored by UV-vis absorbance (metal-mediated and uncatalyzed hydrolysis). Conditions: analogous conditions, EDTA or ZnCl2. The format is physicochemical. How it is done:
(§1) FIG. 23 depicts kinetic traces for the deacetylation of DA-ZP1-TPP. The half-life for deacetylation of a 2.75 μM solution of DA-ZP1-TPP, at 37° C. in 50 mM PIPES buffer (pH 7) and 100 mM KCl, was measured in the presence of 125 μM ZnCl2 (+Zn), 250 μM EDTA (−Zn), or 1.25 units of porcine liver esterase (Esterase). The change in absorbance at 520 nm (EDTA and esterase) or 510 nm (ZnCl2) was used to monitor the reaction.
FIG. 26 depicts in vitro characterization of DA-ZP1-A3. (a) UV-vis and (b) fluorescence spectra of a 5 μM solution of DA-ZP1-A3 in buffer (50 mM PIPES, 100 mM KCl; pH 7). Spectra were acquired initially, upon addition of 100 μM ZnCl2, and again after addition of 200 μM EDTA. (c) Time-dependent change in the normalized absorbance of a ca. 5 μM solution DA-ZP1-A3 at 37° C. in buffer (50 mM PIPES, 100 mM KCl; pH 7) in the presence of 100 μM ZnCl2 (λabs=510 nm) or EDTA (λabs=520 nm). (d) Integrated fluorescence intensity of a 1 μM solution of ZP1-A3 (circles) or DA-ZP1-A3 (squares) as a function of pH. […]
DA-ZP1-TPP has a zinc-induced fluorescence response and is relatively stable to uncatalyzed hydrolysis and esterase activity. […] Other late 3d-block transition metal ions, such as Co(II) and Cu(II), can coordinate to DA-ZP1-TPP but are generally not available in appreciable chelatable quantities within the cell. […]

The subject of another data set is porcine liver esterase. Nature of the data set: Deacetylation by porcine liver esterase (UV-vis absorbance). The data set is classed as in vitro ADME. Conditions: analogous conditions, porcine liver esterase. As for the experimental part: as §1
DA-ZP1-TPP has a zinc-induced fluorescence response and is relatively stable to uncatalyzed hydrolysis and esterase activity. […] Other late 3d-block transition metal ions, such as Co(II) and Cu(II), can coordinate to DA-ZP1-TPP but are generally not available in appreciable chelatable quantities within the cell. In addition to monitoring selectivity in the fluorescence response, we used UV-vis spectroscopy to investigate the rate and zinc-specificity of metal-mediated ester hydrolysis. DA-ZP1-TPP deacetylation results in opening of the lactone ring and restoration of conjugation across the xanthene ring. By monitoring the absorbance of the xanthene it system, we could interrogate deacetylation kinetics in a manner that is independent of the fluorescence response. […] To determine whether ester hydrolysis depends on the metal-binding core of DA-ZP1-TPP, we measured the deacetylation kinetics of fluorescein diacetate (DA-FL) under analogous conditions. […]

For `O=C(NCC[P+](c1ccccc1)(c1ccccc1)c1ccccc1)c1cc2cc3c4c(c2oc1=O)CCCN4CCC3` [C343-TPP], in data set [1], the lipophilicity (log P) is reported as 0.72 ± 0.05. Moreover, in data set [2], the “Charge of the predominate species in solution” value (“Charge” for short) is reported as “+1”. Further, the Localization entry with HeLa cells was “Mitochondria”.

On to `CC(=O)Oc1ccc2c(c1)Oc1cc(OC(C)=O)ccc1C21OC(=O)c2ccccc21` [DA-FL, fluorescein diacetate, reference compound], for which the “stability to hydrolysis and zinc-mediated deacetylation” value in data set [3] is “relatively stable to hydrolysis and zinc-mediated deacetylation”. In addition, the “response to esterase (deacetylation)” value with porcine liver esterase is “responds rapidly to esterase”.

The compound `CN1/C(=C/C=C/c2n(Cc3ccc(CCl)cc3)c3cc(Cl)c(Cl)cc3[n+]2Cc2ccc(CCl)cc2)Oc2ccccc21` [Mitotracker Green, reference compound] gave a logP in data set [1] (octanol/aqueous buffer) of 0.56 ± 0.02. Besides, the “Charge” value in data set [2] was “+1”. In the data set with HeLa cells, the Localization result is reported as “Mitochondria”.

As to `ClCc1ccc(C2=c3cc4c5c(c3Oc3c2cc2c6c3CCCN6CCC2)CCC[N+]=5CCC4)cc1.[Cl-]` [Mitotracker Red, reference compound], in data set [1], the “log P” value is 1.15 ± 0.04. In addition, the “Charge” value in data set [2] is “+1”. Besides, the Localization entry with HeLa cells is on record as “Mitochondria”.

As usually defined, the log P is a log measure of how a compound divides between an organic and an aqueous phase. A high value points to a more lipophilic compound. In general, logP refers to the decadic logarithm of the partition coefficient of the neutral form, usually between octanol and water. High values mean higher lipophilicity, low ones lower lipophilicity.
